The nature of this data set: In vivo ciprofloxacin mass in aspirated middle ear fluid by HPLC/MS after delivery through implanted tympanostomy tubes. Particulars: after 5 minutes of therapeutic delivery (Ciprodex).

Method: N/A indicates an amount of drug below the detection limit of 100 ng/ml. Chinchillas underwent a sequential series of middle ear saline washes, and middle ear fluid was aspirated for the subsequent analysis by LC-MS.
Chinchillas were randomly allocated into two groups (LI-TT, denoted as Test TT, and SM-TT, denoted as SoC TT).

In the case of `O=C(O)c1cn(C2CC2)c2cc(N3CCNCC3)c(F)cc2c1=O` [ciprofloxacin], the “mass of ciprofloxacin within the middle ear, test tubes compared to SoC TTs” value is given as “up to 5 times”.

The values above are taken from patent US20240245602A1, “DRUG COMBINATION KITS AND METHODS OF DRUG DELIVERY” (President and Fellows of Harvard College, priority 2020, published 2024).
